Columns and labels:
[1] = molecular target: T1, human type 5 17β-hydroxysteroid dehydrogenase (Homo sapiens, UniProt P42330); assay: Inhibition of human type 5 17β-HSD activity in transfected 293 cells; format: cell-based; design: Inhibition Type V 17B-HSD % Inh. At 3 · 10^−7 (second value in parentheses): concentration or dose not given beside the values
T1 construct: screen again a human placental λgt11 cDNA to get the full length cDNA clone; expressed in transfected cells; host or cells: human embryonal kidney 293 cells (pCMV / pCMV-neo vector)
T1 sequence (P42330 1-323): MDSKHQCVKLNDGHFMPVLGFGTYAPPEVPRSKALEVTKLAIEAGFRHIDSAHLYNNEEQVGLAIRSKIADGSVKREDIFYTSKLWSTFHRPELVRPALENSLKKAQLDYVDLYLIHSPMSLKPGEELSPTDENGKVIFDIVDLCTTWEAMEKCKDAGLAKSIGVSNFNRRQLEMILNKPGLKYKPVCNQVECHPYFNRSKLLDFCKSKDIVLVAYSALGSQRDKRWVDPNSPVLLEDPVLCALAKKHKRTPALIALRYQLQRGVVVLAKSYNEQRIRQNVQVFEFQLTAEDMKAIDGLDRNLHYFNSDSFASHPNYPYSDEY
Description: The manner in which IC50 was determined is described in “Efficacy of the Preferred Inhibitors”. Lower numbers for IC50 are desirable.
Using a oligoprimer pair (5′-GGA-AAT-CGT-GAC-AGG-GAA-TGG-ATT-CCA-AAC-AG-3′, 5′-GGA-ATT-CTT-TAT-TGT-ATT-TCT-GGC-CTA-TGG-AGT-GAG-3′) derived from human aldoketoreductase (Qin et al., J. Steroid Biochem. Molec. Biol. 46: 673-679, 1993) and polymerase chain reaction (PCR), we have amplified from a human placental λgt11 cDNA library (Clontech Laboratories Inc., Palo Alto, Calif.) a cDNA fragment that was used as probe to screen again a human placental λgt11 cDNA to get the full length cDNA clone. The amplified cDNA fragment was purified on agarose gel and labeled with [α^32P]dCTP (Amersham Corp.) using the random primer labeling kit from Pharmacia Inc. PCR amplification reaction medium contained 50 mM KCl, 10 mM Tris-HCl, pH 8.3, 0.1% gelatin, 1 mM MgCl2, 250 μM dNTP, 0.25 μM oligonucleotide primers, and 200 ng of DNA prepared from human placental λgt11 cDNA library. The aqueous phase was overlaid with 75 μL of mineral oil to avoid evaporation. The mixture was heated at 98° C. for 5 min, following the temperature reduction to 72° C., 1 unit of Taq DNA polymerase was added. Using a DNA Thermal Cycler (Perkin-Elmer Corp.), 30 cycles of amplification were carried out using a step program (94° C., 1 min; 60° C., 1 min; and 72° C., 1 min)/cycle.
Approximately 5×10^5 recombinant phage plaques were screened with 1.5×10^6 cpm/ml of the probe. Prehybridization was performed for 4 h at 42° C. in 50% formamide, 5× Denhardt's solution (1× Denhardt's being 0.02% polyvinyl pyrrolidone, 0.02 Ficoll, 0.02 bovine serum albumin), 5×SSPE (1×SSPE being 0.18M NaCl, 10 mM NaH2PO4, pH 7.4, 1 mM EDTA), 0.1% SDS, and 100 μg/ml yeast tRNA. The probe was denatured by heating at 100° C. for 5 min, before being added to the hybridization solution at 42° C. overnight. Filters were then washed twice at room temperature in 2×SSC (1×SSC being […], pH 7.0), 0.1% SDS, and twice in 0.1×SSC, 0.1% SDS at 60° C. Positive recombinant plaques were purified by replating twice and grown in liquid culture. Phage DNA were isolated by centrifugation for 90 min at 105,000×g, and DNA was then isolated by phenol extraction and precipitation with isopropanol (Karen et al. 1987; In: Current Protocols in Molecular Biology (F. M. Ausubel, R. Brent, E. Kingston, D. D. Moore, T. G. Seidman, T. A. Smith and K. Struhl, eds), Wiley & Sons, New York, pp. 1.13.1-1.13.6).
The phage DNA were digested with EcoRI restriction enzymes and the resulting cDNA fragments were inserted into the EcoRI site downstream to the cytomegalovirus (CMV) promoter of the pCMV vector (kindly provided by Dr. Matthew, Cold Spring Harbor, N.Y., USA). Recombinant pCMV plasmids were amplified in Escherichia Coli DH5α competent cells, and were isolated by alkaline lysis procedure (Maniatis et al., In: Molecular cloning: a laboratory manual, Cold Spring Harbor Laboratory., 1982). Sequencing of double-stranded plasmid DNA was performed according to the dideoxy chain termination method (Sanger et al., PNAS 74: 5453-5467, 1977) using a T7 DNA polymerase sequencing kit (Pharmacia LKB Biotechnology). To avoid errors, all sequences were determined by sequencing both strands of the DNA. Oligonucleotide primers were synthesized in our laboratory with a 394 DNA/RNA synthesizer (Applied Biosystem).
The pCMV vector contain 576 nucleotides of the pCMV promoter (followed by 432 bp of small t intron (fragment 4713-4570) and poly adenylation signal (2825-2536)of SV40, followed by 1989 bp of the Pvu II(628)-AatII (2617) fragment from pUC 19 vector (New England Biolabs) that contains an E. Coli origin of replication and an ampicillin resistance gene for propagation in E. Coli. […]

[2] = system: Shionogi mouse mammary carcinoma cells; assay: Androgenic activity: stimulation of proliferation of Shionogi cells; format: cell-based
Description: In column 9, the androgenic activity of preferred type 5 inhibitors expressed as the percentage of stimulation of proliferation of Shionogi cells at concentrations of 10^−7 M (left number) and 10^−6 M (right number) of inhibitor. The manner in which the stimulation is determined is described in “Other Tests; B-Androgenic/Antiandrogenic Activity”. Lower numbers are desirable. ND means that a determination was not done.
(§1) Androgenic/antiandrogenic activity of some preferred compounds has been measured using the Shionogi mouse mammary carcinoma cells.
(§2) Minimal essential culture medium (MEM), non-essential amino acids, and fetal calf serum were purchased from Flow Laboratories. In order to remove endogenous steroids, serum was incubated overnight at 4° C. with 1% activated charcoal (Norit A, Fisher) and 0.1% Dextran T-70 (Pharmacia). A 2-h supplementary adsorption was performed at 25° C. in order to further remove protein-bound steroids. Serum was also inactivated by a 20-min incubation at 56° C.
(§3) 5α-dihydrotestosterone (DHT) was obtained from Steraloids. The antiandrogen hydroxyflutamide (OH-FLU) was kindly supplied by Drs. T. L. Nagabuschan and R. Neri (Schering Corporation, Kenilworth, U.S.A.).
(§4) Shionogi male mice bearing androgen-sensitive mammary tumors were obtained from Drs. Keishi Matsumoto, Osaka, Japan, and Yvonne Lefebvre, Ottawa, Canada. For primary culture, tumors were excised and washed in ice-cold sterile 25 mM Hepes buffer (137 mM NaCl; 5 mM KCl; 0.7 mM Na2HPO4; 10 mM glucose, pH 7.2). After mincing with scissors, the tumor minces were digested for 2 h at 37° C. in Hepes buffer containing 3.8 mg/ml collagenase (Clostridium, Boehringer), 1.5 mg/ml hyaluronidase II (Sigma), and 3% bovine serum albumin fraction V (Schwartz-Mann). Dispersed cells were collected by centrifugation (500×g for 10 min), washed twice by suspension in minimal essential medium (MEM) containing 5% dextran-coated charcoal-treated fetal calf serum (DCC-FCS), 1% non-essential amino acids, 10 IU/ml penicillin, 50 μg/ml streptomycin, and 100 nM dihydrotestosterone (DHT) (Steraloids).
(§5) Cells were plated in the same medium at a density of 75 000 cells/ml in 75 cm^2 flasks under an atmosphere of 5% carbon dioxide in air at 37° C. The medium was changed weekly. The steroids and antisteroids were dissolved in ethanol and kept in stock solutions chosen to yield final ethanol concentrations less than 0.01% in the culture medium.
(§6) Cells were subcultured at near-confidence by gentle digestion in a solution of 0.1% pancreatin (Flow Laboratories) in Hepes buffer containing 3 mM ethylenediaminetetraacetic acid (EDTA) (pH 7.2). Cells were pelleted by centrifugation, resuspended in culture medium, counted in a Coulter counter, and replated as described above. Soft agar cloning was performed as described (Stanley et al., Cell 10: 35-44, 1977) in the presence of 100 nM DHT.
(§7) Cells were plated in 24-well plates at a density of 20 000 cells/well. The indicated increasing concentrations of agents were added to triplicate dishes, and cells were grown for 10-12 days with changes of medium every 3-4 days. Cell number was measured by direct counting in a Coulter counter.
(§8) ED50 values of action of DHT and glucocorticoids were calculated according to a least-square regression as described (Rodbard, Endocrinology 94: 1427-1431, 1974). Statistical significance was calculated according to a multiple-range test (Kramer, Biometrics 12: 307-310,1956).

[3] = molecular target: T2, human type 2 17β-hydroxysteroid dehydrogenase (Homo sapiens, UniProt P37059); assay: Enzymatic assay for type 2 17β-HSD; format: biochemical; details: Table 4′; bracketed values, 3 · 10^−8M
T2 construct: expressed in transfected cells; host or cells: 293 cells, transient transfection; microsomal fraction (100 000×g pellet)
T2 sequence (P37059 1-387): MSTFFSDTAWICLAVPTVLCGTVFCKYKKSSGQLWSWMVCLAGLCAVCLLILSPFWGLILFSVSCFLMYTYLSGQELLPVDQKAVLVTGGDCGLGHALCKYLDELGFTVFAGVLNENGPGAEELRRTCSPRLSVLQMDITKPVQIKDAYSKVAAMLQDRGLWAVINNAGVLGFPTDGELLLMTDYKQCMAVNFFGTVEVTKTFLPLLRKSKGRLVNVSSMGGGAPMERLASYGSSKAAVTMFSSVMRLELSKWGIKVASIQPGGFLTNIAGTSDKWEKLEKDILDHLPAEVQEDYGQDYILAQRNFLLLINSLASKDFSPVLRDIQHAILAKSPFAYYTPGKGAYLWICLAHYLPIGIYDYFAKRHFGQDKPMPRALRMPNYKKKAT
Description: The manner in which IC50 was determined is described in “Efficacy of Preferred Inhibitors: VI. Enzymatic assay for types 1, 2, and 3 17β-HSD and types 1 and 3 3α-HSD”. […] numbers of IC50 are desirable. Blank means that a determination was not done. […]
Enzyme sources. 293 cells transiently transfected with expression vectors encoding types 1, 2 and 3 17β-HSD (Luu-The et al., J. Steroid Biochem. Molec. Biol., 55: 581-587, 1995), types 1 and 2 5α-reductase (Luu-The et al., J. Invest. Dermatol., 102: 221-226, 1994) and types 1 and 3 3α-HSD (Dufort et al. Biochem. Biophys. Res. Commun. 228: 474-479, 1996), using the calcium phosphate procedure (Kingston et al., In: Current Protocols in Molecular Biology. Edited by E. M. Ausbel, R. Brent, R. E. Kingston, D. D. Moore, J. G. Seidman, J. A. Smith, K. Struhl. John Wiley & Sons, New York, pp. 9.1.1-9.1.9, 1991; Luu-The et al., J. Invest. Dermatol., 102: 221-226, 1994). For assays using cell subfractions, cells were sonicated in 50 mM sodium phosphate buffer (pH 7.4), containing 20% glycerol and 1 mM EDTA and centrifuged at 10 000×g for 30 min before centrifugation for 100 000×g for 1 h to separate the mitochondrial and microsomal fractions, respectively. The cytosol fractions (100 000×g supernatant) was used to determine type 1 activity while the microsomal fraction (pellet at 100 000×g) was used for measurement of types 2 and 3 17β-HSD activities.
Incubation. The enzymatic reaction was carried out at 37° C. in 1 ml of 50 mM sodium phosphate buffer, pH 7.4, containing 20% glycerol, 1 mM EDTA, and 2 mM cofactors (NADPH or AND^+) for 1 h in the presence of 0.1 μM ^14C-labeled substrate: estrone and 4-dione for types 1 and […] 17β-HSD, respectively, testosterone for type 2 17β-HSD as well as types 1 and 2 5α-reductases, DHT for types 1 and 3 3α-HSD activities, and the indicated concentration of inhibitor.
Extraction of metabolites, migration on TLC and quantification were as described above for the assay of type 5 17β-HSD.

[4] = system: Shionogi mouse mammary carcinoma cells; assay: Antiandrogenic activity: inhibition of DHT-induced proliferation of Shionogi cells; format: cell-based; details: Table 4′, DHT-induced proliferation
Description: The manner in which the inhibition is determined is described in “Other Tests; B-Androgenic/Antiandrogenic Activity”. Lower numbers are desirable. ND means that a determination was not done.
as §1, §2, §3, §4, §5, §6, §7, §8

CCCCCO[C@]1(C(C)=O)CC[C@H]2[C@@H]3C=C(C)C4=CC(=O)CC[C@]4(C)[C@H]3CC[C@@]21C [EM-1127, 6-Methyl-17α-pentyloxy-4,6-pregnadien-3,20-dione]
Inhibition Type V 17β-HSD % Inh. ([1]; at 3.10^−6): 91) % | Inhibition Type V 17β-HSD % Inh. ([1]; at 3.10^−7): (71% | Androgenic Activity Shionogi, Basal ([2]; E^−6): 92 | Androgenic Activity Shionogi, Basal ([2]; E^−7): 85

CC(=O)O[C@]1(C(C)=O)CC[C@H]2[C@@H]3C=C(Cl)C4=CC(=O)CC[C@]4(C)[C@H]3CC[C@@]21C [chlormadinone acetate, reference compound]
inhibition of type 5 17β-hydroxysteroid dehydrogenase (in words) [1]: inhibit that type 5 enzyme

CC(=O)O[C@]1(C(C)=O)CC[C@H]2[C@@H]3C[C@H](C)C4=CC(=O)CC[C@]4(C)[C@H]3CC[C@@]21C [Medroxyprogesterone acetate, reference compound]
inhibition of type 5 17β-hydroxysteroid dehydrogenase (in words) [1]: inhibit that type 5 enzyme

CC12CCC(=O)C=C1C=CC1C2CCC2(C)C(=O)C3CCCC3C12 (stereo not shown) [SA-208-59]
Inhibition Type V 17B-HSD % Inh. At 3 · 10^−7 (first value in parentheses) ([1]; first of two concentrations, 3 · 10^−7): (72% | Inhibition Type V 17B-HSD % Inh. At 3 · 10^−7 (second value in parentheses) ([1]; second of two concentrations, 3 · 10^−7): 88) %

CCC1(CC)CC[C@@]2(CC[C@H]3[C@@H]4CCc5cc(OC)ccc5[C@H]4CC[C@@]32C)OC1=O [EM-1419, 3-Methoxy-1,3,5(10)-estratrien-17(R)-spiro-2′-(5′,5′-diethyl-6′-oxo)tetrahydropyran]
Androgenic Activity Shionogi, Basal E^−6 ([2]; Table 4′, E^−6): −29% | Androgenic Activity Shionogi, Basal E^−7 ([2]; Table 4′, E^−7): 16% | Inhibition Type 2 17β-HSD Activity [% Inh. at 3 · 10^−8M] [3]: [74] % | Antiandrogenic Activity Shionogi, DHT E^−6 ([4]; E^−6 (10^−6 M)): −64% | Antiandrogenic Activity Shionogi, DHT E^−7 ([4]; E^−7): 2%

— US6541463B1, “Inhibitors of type 5 and type 3 17β-hydroxysteroid dehydrogenase and methods for their use” (Endorecherche, Inc., priority 1998, dated 2003)
